Measured values published in PubChem BioAssay AID2060597 (Global Health Medicines R&D, GSK, 2025).
Calls of active or inactive are those of the source.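 The calls were made as follows: active = blocking male or female gamete formation with potency of about 10 µM or stronger; inactive = the rest.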

Legend:
[1] = tested on: P. falciparum 3D7A gametocytes, male exflagellation, 48 h; experiment: transmission-blocking activity on Pf gametocytes – dual gamete formation, strain 3D7A, dose response (AID 2060597)
[2] = as above; details: P. falciparum 3D7A gametocytes, male exflagellation, 48 h

Compound | IC50 [1] | outcome [2]
O=C(/C=C/c1n[nH]c2ccccc12)Nc1ccc(C(=O)NCCN2CCOCC2)cc1 | > 10 µM | 
O=C(CCCc1ncc(-c2ccccc2)o1)N1CCOC2CCCC21 (stereo not drawn) | > 10 µM | 
O=C(COc1ccc(Br)cc1F)N1CCN(c2cnccn2)CC1 | > 10 µM | 
COc1ccc2oc(C(=O)NC3CCC(Oc4ncccn4)CC3)cc2c1 (stereo not drawn) | > 10 µM | 
O=C(Nc1cccnc1)C1CCN(c2ccc(-c3ccco3)nn2)CC1 | > 10 µM | 
O=C(Nc1nnc(-c2ccccc2)s1)N1CCCN(c2ncccn2)CC1 | > 10 µM | 
O=C(NCCCN1CCc2ccccc21)c1ccc2c(=O)n(Cc3ccccn3)cnc2c1 |  | active
CC(C)Oc1ccc(-c2nnc(Oc3cccc4c3CCN(CCC(N)=O)CC4)s2)cc1C#N | > 10 µM | 
Cc1ccc2nc(CCNC(=O)CCS(=O)(=O)c3ccc4c(c3)CC(=O)N4C)[nH]c2c1 | > 10 µM | 
Cn1cccc1C1CCCN1CC(=O)Nc1ccc(S(=O)(=O)N2CCOCC2)cc1 (stereo not drawn) | > 10 µM | 
CCN(CC)c1ccc(C(=O)COc2ccc3c(c2)CCNCC3)cc1 | > 10 µM | 
O=C1CSc2ccc(C(=O)Nc3ccc(-c4nnc5n4CCCCC5)cc3)cc2N1 | > 10 µM | 
COc1ccc(N2CCN(C(=O)c3csc(Nc4ccccc4S(C)(=O)=O)n3)CC2)nc1 | > 10 µM | 
O=C(Nc1ccc(N2CCCC2)nc1)N1CCN(c2cnccn2)CC1 | > 10 µM | 
Cc1cc(-c2cnc(N3CCn4c(nnc4C4CC4)C3)nc2-c2ccncc2)on1 | > 10 µM | 
COc1ccc(NC(=O)c2ccc3c(=O)n(Cc4ccccn4)cnc3c2)cc1N1CCN(C)CC1 | > 10 µM | 
N#Cc1cccc(NC(=O)CNc2ccccc2C(=O)NC2CC2)c1 | > 10 µM | 

Further lines, with some results ahead:

IC50 [1] | Compound | outcome [2]
> 10 µM | CN(C(=O)C[C@@H]1CCN(C(=O)C2CC2)C1)c1ccc(-c2ccc(C#N)cc2)cc1 | 
> 10 µM | CCCOc1cncc(S(=O)(=O)c2ccc3c(c2)CCN(C2CCC2)CC3)c1 | 
> 10 µM | COc1ccc(-c2ccc(CNC(=O)c3cc(C(=O)NC(C)C)ccc3Cl)cc2)cn1 | 
> 10 µM | O=C(CCn1nnc2cc(S(=O)(=O)N3CCCC3)ccc21)N1CCN(c2ccccn2)CC1 | 
> 10 µM | COc1ccc(C(=O)N2CCN(c3ccc(-n4cccn4)nn3)CC2)cc1OC | 
> 10 µM | O=C(CCCc1c[nH]c2ccccc12)N1CCN(c2ccc(N3CCOCC3)nn2)CC1 | 
> 10 µM | O=C(CCN=C1NS(=O)(=O)c2ccccc21)Nc1ccc(S(=O)(=O)N2CCCC2)cc1 | 
> 5.01 µM | O=C(/C=C/c1n[nH]c2ccccc12)N1CCN(c2cnccn2)CC1 | 
> 10 µM | Cc1cc(Cl)ccc1OCC(=O)N1CCc2c(cnc(C)c2CNC(=O)c2ccc(=O)[nH]n2)C1 | 
> 10 µM | NC(=O)CC1CCN(C(=O)c2sc3sccc3c2Cl)CC1 | 
> 10 µM | O=C(c1cc2ccccc2[nH]1)N1CCC2(CC(Nc3ccncn3)C2)C1 (stereo not drawn) | 
> 10 µM | N#Cc1c(N)n[nH]c1CCCNC(=O)c1ccc(Cl)c(S(=O)(=O)N2CCCC2)c1 | 
> 10 µM | CCN(C(=O)C=Cc1ccc(S(=O)(=O)N2CCc3ccccc32)cc1)C1CCS(=O)(=O)C1 (stereo not drawn) | 
> 10 µM | O=C1CCCN1c1ccc(S(=O)(=O)N2CCN(S(=O)(=O)c3ccccc3)CC2)cc1 | 
> 10 µM | Cc1nn(C2CCS(=O)(=O)C2)c(C)c1CN(C)C(=O)CN1C(=O)NC2(CCCCC2C)C1=O (stereo not drawn) | 
> 10 µM | Cc1cccc(-c2nn(Cc3ccc(C(=O)NCCCO)cc3)c(=O)cc2N2CCCC(CO)C2)c1 (stereo not drawn) | 
